Reference: patent US20240342179A1, “TREATMENT OF CANCERS OR NEOPLASMS BY INHIBITING KIF15” (University of Kansas, priority 2023, published 2024)

How the values were obtained:
[1] = target: KIF15/TPX2 protein-protein interaction (GST-KIF15 amino acids 1149-1388, His-TPX2 amino acids 346-747) (Homo sapiens (Human), UniProt Q9NS87); experiment: KIF15/TPX2 AlphaScreen assay; format: binding
Protocol: The protocol designed peptides corresponding to the appropriate domains of KIF15 (amino acids 1149-1388, GST-tagged) and TPX2 (amino acids 346-747, His-tagged), for use in the AlphaScreen assay.
Next, the protocol screened a total of 191,852 compounds from the KU-HTS library. Analysis identified 584 hits that inhibited the primary AlphaScreen TPX2-KIF15 interaction to greater than three standard deviations plus the plate inhibition-median. The 584 hits were tested for assay interference in the AlphaScreen counter-screen using His-GST fusion protein. […] Of the 467 hits, 399 inhibited the TPX2-KIF15 interaction in a dose-response manner. Refinement was conducted until identifying the compounds provided herein.
To identify compounds that inhibit KIF15-mediated bipolar spindle formation, a process that is dependent on KIF15 binding to TPX2, the protocol designed a high-throughput screen using AlphaScreen Technology. Previous studies predicted that KIF15-TPX2 binding is mediated through a C-terminal coiled-coil domain on KIF15 (amino acids 1149-1388; amino acids 1359-1380) that binds the C-terminal region of TPX2 (amino acids 475-715; amino acids 680-747)^50, 52, 57, 58. Based on these observations, the protocol designed peptides corresponding to the appropriate domains of TPX2 (amino acids 346-747, His-tagged), and KIF15 (amino acids 1149-1388, GST-tagged) for use in the AlphaScreen assay.
Next, the protocol screened a total of 191,852 compounds from the KU-HTS small-molecule compound collection. The protocol identified 584 hits that inhibited the primary AlphaScreen TPX2-KIF15 interaction to greater than three standard deviations plus the plate inhibition-median. The 584 hits were tested for assay interference in the AlphaScreen assay counter-screen using His-GST fusion protein eliminating 117 compounds^99. […] Of the 467 hits, 399 inhibited the KIF15-TPX2 interaction in a concentration-dependent manner (FIGS. 3A-3D), rendering them candidates for follow-on validation in orthogonal and counter-screen assays. Informed by computational and medicinal chemistry assessment^100, the protocol selected a representative subset of approximately 200 of the 399 compound hits for additional characterization. Samples for 177 compounds from the subset of approximately 200 representative compounds were available for purchase. Samples of these 177 compounds were purchased for structure verification by NMR and further characterization. There was enough compound sample procured to complete follow-on screening for 166 of the 177 compounds.

GST-KIF15 1149-1388 = GST-KIF15 1149-1388 (Homo sapiens (Human), UniProt Q9NS87); experiment: NMR (STD-NMR / WaterLOGSY) versus GST-KIF15; format: binding; conditions: for NMR Versus GST-KIF15: Hit / No; for WaterLOGSY binding to GST-KIF15: 1:150 GST-KIF15 1149-1388
Protocol: (§1) WaterLOGSY NMR Spectra of Compounds A1 and B2 are provided.
Various cocktails of compounds were prepared to test for interactions. 100 μL DMSO-d6 was added to 3 mg of material. 26 cocktails of 6 compounds were prepared and 3 cocktails of 7 compounds were prepared. Then, 3 μM protein is added to 300 μM of the cocktails in 10% D2O buffer. Concentration of compounds is 10 mM each.
(§2) The 166 compound hit samples were further characterized for KIF15 or TPX2 binding using biophysical saturation transfer difference nuclear magnetic resonance (STD-NMR) and WaterLOGSY assays. The 166 compound samples were screened by STD-NMR for evidence of binding to GST-KIF15 or His-TPX2. In our assessment, no hits bound to His-TPX2. The protocol counter-screened potential hits against a His-GST peptide^99 and for aggregation using protein-free controls. Ultimately, three compound hits representing two compound chemotypes were validated to bind KIF15 by WaterLOGSY (FIGS. 4A-4B).

KIF15-HiBiT = KIF15-HiBiT (Homo sapiens (Human), UniProt Q9NS87); experiment: Cellular thermal shift assay (CETSA), HiBiT split luciferase; format: cell-based; conditions: 100 μM
Protocol: To verify that the three putative binders of KIF15 identified by NMR spectroscopy against KIF15 fragments, a cellular thermal shift assay was performed. All three compounds at 100 μM stabilized KIF15 when thermally challenged to a greater extent than the TPX2 mimetic peptide used as a positive control (Δ5.7° C. for compound A1, Δ5.3° C. for compound A2, and Δ9.6° C. for compound B1, Δ2.1° C. for TPX2 mimetic peptide).
The HiBiT Split Luciferase based protein detection method utilized for screening of candidate compounds for physical binding to KIF15. […] The increase in stability of the protein indicates ligand engagement by stabilizing the protein in a natured conformation.
These three compound hits, referred to as Compounds A1, A2 and B1 (FIG. 3A) were screened for target engagement in CETSA. In short, a split luciferase tag known as HiBiT (Promega, Madison, WI) was fused to the KIF15 protein in a transient expression vector. Soluble protein can be easily quantified by adding the LgBiT subunit of nano luciferase. A stabilizing shift in the melting temperature of the protein indicates the protein is being stabilized by the engaged small molecule indicating direct binding of the small molecule to its target.

His-TPX2 346-747 = His-TPX2 346-747 (Homo sapiens (Human), UniProt Q9ULW0); experiment: NMR (STD-NMR / WaterLOGSY) versus His-TPX2; format: binding; conditions: 1:150 His-TPX2 346-747
Source text: as §1, §2

[2] = test system: EOC cell lines (A2780, OVCAR5, and SKOV3); experiment: Synergy with ispinesib in cell viability (Bliss score); format: cell-based; conditions: combination with ispinesib
Source text: The protocol tested all 166 samples of compound hits for complete screening for synergism in KIF11-inhibited cells EOC cell lines (A2780, OVCAR5, and SKOV3) (FIGS. 5A-5C).
Bliss score analyzes the statistical independence of the two treatments. A positive score indicates synergism, a negative score indicates antagonism and a score of zero indicates a purely additive effect of the combination therapy.

Sequence of GST-KIF15 1149-1388 (Q9NS87 1149-1388): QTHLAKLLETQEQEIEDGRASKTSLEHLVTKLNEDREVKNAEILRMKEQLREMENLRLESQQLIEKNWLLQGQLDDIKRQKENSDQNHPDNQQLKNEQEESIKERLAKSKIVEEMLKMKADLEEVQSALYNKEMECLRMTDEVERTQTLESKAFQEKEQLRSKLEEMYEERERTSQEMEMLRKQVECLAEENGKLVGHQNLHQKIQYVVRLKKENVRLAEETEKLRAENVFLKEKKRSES
Sequence of KIF15/TPX2 protein-protein interaction (GST-KIF15 amino acids 1149-1388, His-TPX2 amino acids 346-747) (Q9NS87 1149-1388): as above
Sequence of His-TPX2 346-747 (Q9ULW0 346-747): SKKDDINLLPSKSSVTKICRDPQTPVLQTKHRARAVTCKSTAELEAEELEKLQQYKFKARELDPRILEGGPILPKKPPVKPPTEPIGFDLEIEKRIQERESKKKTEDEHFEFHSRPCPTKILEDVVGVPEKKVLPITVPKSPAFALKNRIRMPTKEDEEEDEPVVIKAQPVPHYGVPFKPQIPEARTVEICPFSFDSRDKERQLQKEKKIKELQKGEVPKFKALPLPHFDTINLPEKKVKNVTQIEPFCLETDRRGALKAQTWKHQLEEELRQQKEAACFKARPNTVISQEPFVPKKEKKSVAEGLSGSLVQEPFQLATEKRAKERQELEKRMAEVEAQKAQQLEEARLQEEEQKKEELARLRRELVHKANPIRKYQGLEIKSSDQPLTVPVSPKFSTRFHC
Sequence of KIF15-HiBiT (Q9NS87 whole entry, the tested form may be a part): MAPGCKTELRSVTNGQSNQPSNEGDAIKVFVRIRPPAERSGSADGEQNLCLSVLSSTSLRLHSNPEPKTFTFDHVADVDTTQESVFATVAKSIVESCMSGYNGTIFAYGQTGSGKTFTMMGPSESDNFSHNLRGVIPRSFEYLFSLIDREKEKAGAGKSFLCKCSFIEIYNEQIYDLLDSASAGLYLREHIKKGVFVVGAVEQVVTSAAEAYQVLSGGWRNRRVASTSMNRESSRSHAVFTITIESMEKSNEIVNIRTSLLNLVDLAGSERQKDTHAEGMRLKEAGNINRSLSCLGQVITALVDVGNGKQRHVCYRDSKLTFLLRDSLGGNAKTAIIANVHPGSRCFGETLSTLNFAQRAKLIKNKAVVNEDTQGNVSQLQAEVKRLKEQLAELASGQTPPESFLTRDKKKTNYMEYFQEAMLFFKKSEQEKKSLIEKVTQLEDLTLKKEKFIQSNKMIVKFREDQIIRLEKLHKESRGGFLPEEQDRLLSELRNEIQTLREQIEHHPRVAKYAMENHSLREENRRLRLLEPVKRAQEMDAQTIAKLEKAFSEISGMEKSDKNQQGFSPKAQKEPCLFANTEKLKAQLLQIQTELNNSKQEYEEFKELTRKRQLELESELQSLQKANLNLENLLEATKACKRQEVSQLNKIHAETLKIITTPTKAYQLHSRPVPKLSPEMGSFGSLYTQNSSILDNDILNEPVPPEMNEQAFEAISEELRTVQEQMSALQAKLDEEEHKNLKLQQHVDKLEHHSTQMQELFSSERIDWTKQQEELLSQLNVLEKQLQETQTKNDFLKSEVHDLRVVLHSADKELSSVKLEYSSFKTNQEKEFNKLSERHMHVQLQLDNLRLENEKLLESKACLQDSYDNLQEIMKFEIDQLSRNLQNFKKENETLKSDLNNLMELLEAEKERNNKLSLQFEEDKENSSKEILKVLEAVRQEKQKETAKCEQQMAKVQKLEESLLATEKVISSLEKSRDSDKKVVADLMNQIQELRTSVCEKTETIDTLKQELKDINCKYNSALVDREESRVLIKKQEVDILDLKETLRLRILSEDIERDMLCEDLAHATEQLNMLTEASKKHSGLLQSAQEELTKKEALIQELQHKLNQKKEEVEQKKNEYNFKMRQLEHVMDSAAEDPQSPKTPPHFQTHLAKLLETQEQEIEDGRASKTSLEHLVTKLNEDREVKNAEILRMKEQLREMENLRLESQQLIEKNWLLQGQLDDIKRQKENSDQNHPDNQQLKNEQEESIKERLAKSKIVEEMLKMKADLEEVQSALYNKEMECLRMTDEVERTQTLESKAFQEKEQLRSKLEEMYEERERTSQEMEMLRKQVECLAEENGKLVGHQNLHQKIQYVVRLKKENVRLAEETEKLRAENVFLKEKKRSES

Row | Compound | IC50 [1] [µM] | NMR Versus GST-KIF15 (GST-KIF15 1149-1388) | IC50 (TruHits counter-screen) [µM] | shift in thermostability of KIF15 (KIF15-HiBiT) | WaterLOGSY binding to GST-KIF15 (GST-KIF15 1149-1388) | WaterLOGSY / STD-NMR binding to His-TPX2 (His-TPX2 346-747) | synergy with ispinesib in inhibition of growth [2]
1 | CCCN1CCN(c2ncc3c(n2)CCN(Cc2ccc(CC)cc2)C3)CC1 [Compound 1, 6-(4-ethylbenzyl)-2-(4-propylpiperazin-1-yl)-5,6,7,8-tetrahydropyrido[4,3-d]pyrimidine] | 32.2 ± 4.6 | No | 393 ± 13 | – | – | – | –
2 | CCCN1CCN(c2ncc3c(n2)CCN(Cc2cccc(F)c2F)C3)CC1 [Compound 2, 6-(2,3-difluorobenzyl)-2-(4-propylpiperazin-1-yl)-5,6,7,8-tetrahydropyrido[4,3-d]pyrimidine] | 27.8 ± 4.7 | No | 428 ± 38 | – | – | – | –
3 | CCCN1CCN(c2ncc3c(n2)CCN(Cc2ccc(OCC)c(OCC)c2)C3)CC1 [Compound 3, 6-(3,4-diethoxybenzyl)-2-(4-propylpiperazin-1-yl)-5,6,7,8-tetrahydropyrido[4,3-d]pyrimidine] | 42.2 ± 3.3 | No | 510 ± 6 | – | – | – | –
4 | CCCN1CCN(c2ncc3c(n2)CCN(Cc2ccc(Br)s2)C3)CC1 [Compound 4, 6-((5-bromothiophen-2-yl)methyl)-2-(4-propylpiperazin-1-yl)-5,6,7,8-tetrahydropyrido[4,3-d]pyrimidine] | 23 ± 1.6 | Hit | 312 ± 79 | – | – | – | –
5 | CCCN1CCN(c2ncc3c(n2)CCN(Cc2cccc(Br)c2)C3)CC1 [Compound 5, 6-(3-bromobenzyl)-2-(4-propylpiperazin-1-yl)-5,6,7,8-tetrahydropyrido[4,3-d]pyrimidine] | 21 | Hit | 287 ± 8 | – | – | – | –
6 | CCCN1CCN(c2ncc3c(n2)CCN(Cc2ccc(Br)cc2)C3)CC1 [Compound 6, 6-(4-bromobenzyl)-2-(4-propylpiperazin-1-yl)-5,6,7,8-tetrahydropyrido[4,3-d]pyrimidine] | 13.6 ± 1.2 | Hit | 628 ± 35 | – | – | – | –
7 | CCOc1ccc(CN2CCc3nc(N4CCN(CC)CC4)ncc3C2)cc1OCC [Compound 7, 6-(3,4-diethoxybenzyl)-2-(4-ethylpiperazin-1-yl)-5,6,7,8-tetrahydropyrido[4,3-d]pyrimidine] | 2.8 ± 0.3 | No | 176 ± 9 | – | – | – | –
8 | CCN1CCN(c2ncc3c(n2)CCN(Cc2cc(OC)c(OC)cc2OC)C3)CC1 [Compound 8, 2-(4-ethylpiperazin-1-yl)-6-(2,4,5-trimethoxybenzyl)-5,6,7,8-tetrahydropyrido[4,3-d]pyrimidine] | 2.4 ± 0.1 | No | 120 ± 5.2 | – | – | – | –
9 | CCN1CCN(c2ncc3c(n2)CCN(Cc2ccc(OC)c(OC)c2OC)C3)CC1 [Compound 9, 2-(4-ethylpiperazin-1-yl)-6-(2,3,4-trimethoxybenzyl)-5,6,7,8-tetrahydropyrido[4,3-d]pyrimidine] | 1.7 ± 0.1 | No | 196 ± 0.1 | – | – | – | –
10 | CCN1CCN(c2ncc3c(n2)CCN(Cc2ccccc2Cl)C3)CC1 [Compound 10, 6-(2-chlorobenzyl)-2-(4-ethylpiperazin-1-yl)-5,6,7,8-tetrahydropyrido[4,3-d]pyrimidine] | 1.5 ± 0.01 | Hit | 86 ± 16 | significant shift in thermostability | indicates binding | not observed | Synergy
11 | CCN1CCN(c2ncc3c(n2)CCN(Cc2cc(OC)c(OC)c(OC)c2)C3)CC1 [Compound 11, 2-(4-ethylpiperazin-1-yl)-6-(3,4,5-trimethoxybenzyl)-5,6,7,8-tetrahydropyrido[4,3-d]pyrimidine] | 2.5 ± 0.8 | No | 556 ± 38 | – | – | – | –
12 | CCOc1ccc(CN2CCc3nc(N4CCN(CC)CC4)ncc3C2)cc1OC [Compound 12, 6-(4-ethoxy-3-methoxybenzyl)-2-(4-ethylpiperazin-1-yl)-5,6,7,8-tetrahydropyrido[4,3-d]pyrimidine] | 3.5 ± 0.5 | No | 305 ± 13 | – | – | – | –
13 | CCCN1CCN(c2ncc3c(n2)CCN(Cc2ccc(OCC)c(OC)c2)C3)CC1 [Compound 13, 6-(4-ethoxy-3-methoxybenzyl)-2-(4-propylpiperazin-1-yl)-5,6,7,8-tetrahydropyrido[4,3-d]pyrimidine] | 44.8 ± 0.2 | No | 664 ± 103 | – | – | – | –
14 | C=CCn1c(C(=O)NCc2ccccn2)cc2sc(C)cc21 [Compound 14, 4-allyl-2-methyl-N-(pyridin-2-ylmethyl)-4H-thieno[3,2-b]pyrrole-5-carboxamide] | 5.6 ± 0.3 | – | 87 ± 2 | significant shift in thermostability | indicates binding | not observed | Synergy
15 | CCCN1CCN(c2ncc3c(n2)CCN(Cc2cc(Br)cs2)C3)CC1 [Compound 15, 6-((4-bromothiophen-2-yl)methyl)-2-(4-propylpiperazin-1-yl)-5,6,7,8-tetrahydropyrido[4,3-d]pyrimidine] | – | Hit | – | – | – | – | –
16 | CCN1CCN(c2ncc3c(n2)CCN(Cc2ccc(F)cc2F)C3)CC1 [Compound 16, 6-(2,4-difluorobenzyl)-2-(4-ethylpiperazin-1-yl)-5,6,7,8-tetrahydropyrido[4,3-d]pyrimidine] | – | No | – | – | – | – | –
17 | CCN1CCN(c2ncc3c(n2)CCN(Cc2cccc(OC)c2OC)C3)CC1 [Compound 17, 6-(2,3-dimethoxybenzyl)-2-(4-ethylpiperazin-1-yl)-5,6,7,8-tetrahydropyrido[4,3-d]pyrimidine] | – | No | – | – | – | – | –
18 | CCN1CCN(c2ncc3c(n2)CCN(Cc2cc(Br)cs2)C3)CC1 [Compound 18, 6-((4-bromothiophen-2-yl)methyl)-2-(4-ethylpiperazin-1-yl)-5,6,7,8-tetrahydropyrido[4,3-d]pyrimidine] | – | Hit | – | – | – | – | –
19 | CCN1CCN(c2ncc3c(n2)CCN(Cc2ccc(OC(C)C)c(OC)c2)C3)CC1 [Compound 19, 2-(4-ethylpiperazin-1-yl)-6-(4-isopropoxy-3-methoxybenzyl)-5,6,7,8-tetrahydropyrido[4,3-d]pyrimidine] | – | No | – | – | – | – | –
20 | CCOc1cccc(CN2CCc3nc(N4CCN(CC)CC4)ncc3C2)c1 [Compound 20, 6-(3-ethoxybenzyl)-2-(4-ethylpiperazin-1-yl)-5,6,7,8-tetrahydropyrido[4,3-d]pyrimidine] | – | No | – | – | – | – | –
